Laboratory results: patent US4559344A, “Pyridine-pyrimidinone derivatives, a process for their production and H -antagonist medicament containing these compounds” (Ludwig Heumann & Co. GmbH, priority 1983, dated 1985)

Legend:
[1] = background statement; cited from earlier work
[2] = target: T1, histamine-H2-receptors (Cavia porcellus, UniProt P47747); experiment: pA2 determination of H2-antagonistic activity in vitro on the isolated atrium of guinea pigs; settings: isolated guinea pig atrium
T1 construct: in vitro on the isolated atrium of guinea pigs; from tissue; host or cells: isolated guinea pig atrium
T1 sequence (P47747 whole entry): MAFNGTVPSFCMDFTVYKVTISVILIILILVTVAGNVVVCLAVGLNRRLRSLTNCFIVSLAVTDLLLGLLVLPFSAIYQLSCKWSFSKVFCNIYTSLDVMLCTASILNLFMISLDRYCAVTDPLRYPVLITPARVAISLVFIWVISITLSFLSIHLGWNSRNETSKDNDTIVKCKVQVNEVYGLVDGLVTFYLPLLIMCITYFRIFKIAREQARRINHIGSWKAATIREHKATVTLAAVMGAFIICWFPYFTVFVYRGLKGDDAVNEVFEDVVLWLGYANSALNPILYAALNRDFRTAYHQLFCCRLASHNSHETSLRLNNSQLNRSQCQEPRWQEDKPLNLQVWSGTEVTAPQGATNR
Source text: A recognized method of measuring H2 -antagonistic activity is based on determination of the pA2 -values in vitro on the isolated atrium of guinea pigs (cf. Ariens, Molecular Pharmacology, Vol. 1, Academic Press, New York, 1964).

CN/C(=N/CCSCc1nc[nH]c1C)NC#N [Cimetidine, cimetidine]
half life [1]: relatively short half life

Cc1ccc(Cc2cnc(CCCCOc3cccc(CN4CCCCC4)c3)[nH]c2=O)cn1 [Example 1, 5-(6-methylpyrid-3-ylmethyl)-2-[4-[3-(1-piperidylmethyl)-phenoxy]-butyl]-pyrimidin-4-one]
Kb [2]: 21.9 nM
